Reference: patent publication EP0302435A1, “Method for augmenting antibody-dependent cellular cytotoxicity” (NEORX CORPORATION, priority 1987, dated 1989)

Test system: LS-180 target cells
Assay: PMN-ADCC target cell lysis assay (⁵¹Cr release)
Type: cell-based, human
Settings: for % Cytotoxicity: PMNs pretreated 30 min, E:T 100:1, 3 h ADCC assay; for % Cytotoxicity / augmentation of PMN-mediated IgG₃ ADCC: antibody NR-CO-04; for augmentation of PMN-mediated IgG₃ ADCC: activator pretreatment of PMNs, summary of Table 2
Description: Peripheral blood polymorphonuclear leukocytes (PMNs) were obtained from healthy normal human donors. Blood (150 cc) was withdrawn by venipuncture in heparinized tubes and mixed with an equal volume of 3% dextran in phosphate-buffered saline (PBS). After sedimentation at 1 x g for 10 min at room temperature, the leukocyte-rich plasma was layered on top of lymphocyte separation medium (LSM, Organon Technica, Durham, NC). PMNs were purified by treating the PMNs and red blood cell (RBC) pellet with RBC lysing solution (0.800% w/v NH₄Cl, 0.1% w/v KHCO₃, 37.0 mg tetrasodium EDTA in 100 ml water at pH 7.3). After incubating approximately 5 min at room temperature, the volume was increased 3X with PBS and the cells washed twice by centrifugation. After resuspension of the cells in RPMI-5% FCS, the PMNs were used in cytotoxicity assays or were incubated with response modifiers.
An appropriate number of target cells were labeled with 200 µCi ⁵¹Cr (⁵¹Cr-Na₂CrO₃; New England Nuclear, Boston, MA) for 2 h at 37°C, with gentle mixing every 15-30 min. The labeled cells were washed three times with 15 ml RPMI followed by centrifugation at 250 x g for 5 min at room temperature. The final pellet was resuspended in RPMI containing 5% FCS, counted, and diluted to an appropriate concentration.
In a typical assay, effector PMNs at different effector:target ratios were added to wells of a microtiter plate (Falcon Plastics, Oxnard, CA), except for those wells to be used for determination of total and spontaneous release of ⁵¹Cr from target cells. For GM-CSF augmentation, PMNs were generally treated within the microtiter plates by the addition of the lymphokine. The effector cells were either washed before the addition of antibody and target cells, or were left in the presence of lymphokine during the ADCC assay.
NR-CO-04 antibody was added to appropriate wells at a concentration of 1 µg/well (4 µg/ml), and the microtiter plate was then incubated at 37°C for 3 h. […]
Wells used for determination of spontaneous ⁵¹Cr release received labeled target cells alone in 200 µl of RPMI-5% FCS; the wells used for determination of total ⁵¹Cr release received labeled target cells and 200 µl 1.0% NP-40.
After […] incubation, the microtiter plate was centrifuged at 250 x g for 5 min at room temperature, and 125 µl of supernatant was transferred from each well into a separate 12 x 75 mm glass tube. Each tube was then assayed for ⁵¹Cr release with a Beckman 5000 gamma counter.
PMN-ADCC assays were performed in triplicate, according to the procedure described in Example I.E., supra. The % lysis (or percent specific release) is indicative of the level of ADCC of target cells. Test release is the amount of release in wells containing effector cells and target cells.

Molecule	% Cytotoxicity (concentration not given) [%]	augmentation of PMN-mediated IgG₃ ADCC	GM-CSF augmentation of PMN-ADCC (dose-dependent, 1 to 100 μM retinal, summary of Table 4)	low level of PMN-ADCC observed in the absence of GM-CSF stimulation (dose-dependent, summary of Table 4)	% Cytotoxicity (10⁻⁷ M) [%]	% Cytotoxicity (10⁻⁸ M) [%]	% Cytotoxicity (10⁻⁹ M) [%]
CCCCCCCCCCCCCC(=O)O[C@@H]1[C@@H](C)[C@@]2(O)[C@@H](C=C(CO)C[C@]3(O)C(=O)C(C)=C[C@@H]23)[C@@H]2C(C)(C)[C@]12OC(C)=O [PMA, phorbol myristate acetate]	18.8 ± 0.6	less effective than GM-CSF					
CC1=C(/C=C/C(C)=C/C=C/C(C)=C/C=O)C(C)(C)CCC1 [Retinal]			abrogated	further depressed			
fMET-Leu-Phe peptide [fMLP]		less effective than GM-CSF			16.2 ± 0.8	23.7 ± 1.2	15.6 ± 0.8
